The text below walks through data of patent publication US20230114865A1, “PHENYL PYRROLE AMINOGUANIDINE SALTS AND FORMULATIONS” (SYNACT PHARMA APS, priority 2021, published 2023).

Where two headings read alike, the source gives them in different places. Marks after values point to notes of the source that are not given here.

Data set [1] can be described thus: Solubility of additional AP1189 salts, HCl/KCl buffer 0.5 M pH 1.2. The data set is classed as physicochemical.
For data set [2] the following is noted: buffer pH 1.2, fully dissolved, succinate 0.5 h.
Protocol: As a result, the pH was adjusted to 1.2 with concentrated hydrochloric acid in both solutions. Both sample preparations were diluted 500 times with the sample diluent (acetonitrile:water 1:1 v/v).
For data set [3], the system named is experimental inflammatory arthritis. Particulars: in vivo; cited from earlier work.
A further data set has as its system MC1R. Particulars: cited from earlier work.
A further data set concerns melanocytes. Particulars: cited from earlier work.
Data set [4] can be described thus: Stability of AP1189 in Ora-Sweet and Ora-Sweet SF, HPLC. Format: physicochemical. Particulars: 20 mg/ml suspension, pH 4.25, T=0. As for the experimental part: Stability of AP1189 in Ora-Sweet and Ora-Sweet SF was tested.
The test system of a further data set is MC3R. Particulars: cited from earlier work.
A short description of data set [5]: Forced degradation studies on AP1189 at low pH. Particulars: within 24 hours. The data set is classed as physicochemical.
For a further data set, the system named is primary macrophages. Particulars: cited from earlier work.
The test system of another data set is peritonitis. Particulars: in vivo; cited from earlier work.
Data set [6] in a line: Chemical stability of AP1189 suspension in Syrspend SF Alka, HPLC. Format: physicochemical. Particulars: room temp.; for Total Impurities (% Area) Initial / Total Impurities (% Area) T = 30 min / Total Impurities (% Area) T = 60 min / Total Impurities (% Area) T = 90 min: Syrspend SF Alka. As for the experimental part: An experiment was conducted at lowest (15 mg) and highest (400 mg) dose strength to assess the dispersability and physical stability of the suspension. Chemical stability of the suspension was assessed by HPLC for 90 minutes at every 30 minutes interval.

Turning to `CC1(C)C2CCC1(CS(=O)(=O)O)C(=O)C2` (stereo not shown), the “Solubility HCI/KCI Buffer 0.5 M pH 1.2” value in data set [1] is on record as less than 15 mM.

Take “(E)-N-[1-(2-nitrophenyl)-1-H-pyrrole-2-yl-allylideneamino]-guanidinium acetate [AP1189 acetate]”: the “Determined concentration in pH 1.2 samples” value is on record as more than 223 mg/mL in data set [2] (acetate 5 h) and >617 mM (5 h) in data set [2] (time in cell: acetate 5 h).

Regarding `NC(N)=N/N=C/C=C/c1cccn1-c1ccccc1[N+](=O)[O-]` [AP1189, (E)-N-[1-(2-nitrophenyl)-1-H-pyrrole-2-yl-allylideneamino]-guanidine], the “macroscopic and histological parameters of joint disruption” value in [3] was “significantly reduce”. In the data set with MC1R, the ERK1/2 phosphorylation result is listed as “cause ERK1/2 phosphorylation”, the “canonical cAMP generation” value was “does not induce canonical cAMP generation” and the “characterisation at MC1R” value is recorded as “biased agonist”. The melanogenesis in melanocytes entry in the data set with melanocytes is given as “no melanogenesis was induced”. Moreover, the “AP1189 degradation in Ora-Sweet SF, Initial” value in data set [4] was “<LOQ”. Also, in the data set on MC3R, the ERK1/2 phosphorylation result is on record as “cause ERK1/2 phosphorylation”, the “canonical cAMP generation” value is “does not induce canonical cAMP generation” and the “characterisation at MC3R” value is listed as “biased agonist”. In addition, in data set [5], the “degradation at low pH” value is “at least 20%”. Moreover, in the data set with primary macrophages, the “cytokine release in macrophages” value was “reduce cytokine release” and the “efferocytosis in primary macrophages” value is on record as “proefferocytic effect”. In addition, the actions in peritonitis entry in the data set with peritonitis was “elicit anti-inflammatory actions”. Besides, in [6] (90 minutes), the “stability in Syrspend SF Alka (in words)” value was “stable”. For the same compound, in data set [6] (dose strength 15 mg), the “Total Impurities (% Area) Initial” value was 0.89* % Area, the “Total Impurities (% Area) T = 30 min” value is recorded as 0.94* % Area, the “Total Impurities (% Area) T = 60 min” value is 0.88* % Area and the “Total Impurities (% Area) T = 90 min” value is 0.87* % Area. Further, in data set [6] (dose strength 400 mg), the “Total Impurities (% Area) Initial” value amounted to 0.45 % Area, the “Total Impurities (% Area) T = 30 min” value is 0.45 % Area, the “Total Impurities (% Area) T = 60 min” value was 0.45 % Area and the “Total Impurities (% Area) T = 90 min” value is on record as 0.45 % Area.
